Where a SMILES comes first, the peptide text is derived from it. [ ]: non-standard residue; d: D form.
Legend:
[1] = test system: MRSA biofilms on human skin organoid; assay: Skin organoid biofilm infection model, peptide solution, MRSA; format: cell-based, methicillin resistant Staphylococcus aureus; conditions: peptide solution 4 hrs (FIG. 3A)
[2] = test system: PAO1 biofilms on human skin organoid; assay: Skin organoid biofilm infection model, peptide solution, PAO1; format: cell-based, Pseudomonas aeruginosa; conditions: peptide solution 4 hrs (FIG. 3B)
[3] = test system: P. aeruginosa PAO1 biofilms; conditions: for Biofilm growth inhibition: P. aeruginosa PAO1 (FIG. 20D); for minimum inhibitory concentration of peptide that inhibited at least 90% of biofilm growth (MBIC90): P. aeruginosa PAO1 biofilms, >95% pure peptides, BM2 minimal media; for More active than AB103-D against PAO1 biofilms: PAO1, >95% pure peptides
P. aeruginosa LESB58 = assay: Murine sinusitis model, P. aeruginosa; format: in vivo, mouse; Pseudomonas aeruginosa; conditions: P. aeruginosa LESB58, 0.1 mg dose, compared to DJK5
Source text: (§1) FIGS. 15A-15I show peptides AB101-D, AB102-D and AB103-D compared to DJK5 in a murine sinusitis model of bacterial infections. MRSA USA300, nasal cavity (FIG. 15A) P. aeruginosa LESB58 (FIG. 15B and FIG. 15C, nasal cavity); MRSA USA300, lung tissue (FIG. 15D) P. aeruginosa LESB58 (FIG. 15E and FIG. 15F, lung tissue); and MRSA USA300, weight change (FIG. 15G) P. aeruginosa LESB58 (FIG. 15H and FIG. 15I, weight change).
(§2) A murine sinusitis model of bacterial infections in the nasal cavity of mice [Alford et al. (2021). Murine model of sinusitis infection for screening antimicrobial and immunomodulatory therapies. Frontiers in Cellular and Infection Microbiology., 11, 621081] was used to determine the efficacy of D-amino acid peptides AB101-D, AB102-D and AB103-D compared to DJK5. […]. Treatment was applied either as dropwise administration of a peptide solution (20 μl) to the infected naris of a mouse (FIGS. 15A, 15B, 15D, 15E, 15G, 15H) or peptide was delivered using a Respimat® inhaler device (FIGS. 15C, 15F, 15I). Mice were monitored and weighed once daily for up to three days then euthanized prior to collection of nasal lavage fluid and lung tissue for bacterial enumeration. The limit of detection is shown by the dotted line at log CFU=2. […] Accordingly, the results indicated enhanced efficacy of D-amino acid peptides AB101-D, AB102-D and AB103-D compared to DJK5 in this murine model.

[4] = test system: peripheral blood mononuclear cells (PBMCs); assay: Cytotoxicity (LDH release), PBMCs
MRSA USA300 = assay: Murine sinusitis model, MRSA; format: in vivo, mouse; methicillin resistant Staphylococcus aureus; conditions: MRSA USA300, 0.1 mg dose, compared to DJK5
Source text: as §1, §2

[5] = test system: 3-day-old oral plaque (multispecies) biofilms; assay: Oral plaque biofilm model, long-term (1-3 days) exposure, dead cell volume; format: cell-based; conditions: 1 or 5 μg/ml, daily for 3 days, compared to DJK5 (FIG. 16A)
[6] = Peptide aggregation in RPMI + 10% FBS with PBMCs (microscopy); format: physicochemical; conditions: overnight
Protocol: Peptide Aggregation: Peptide aggregation was assessed qualitatively by examining samples of peptides mixed with PBMCs following overnight incubation at 37 °C and 5% CO2. All samples were prepared in RPMI media containing 10% FBS the same manner as the cytotoxicity assays described above. Visualization of aggregates was done using a Nikon Eclipse TS100 Inverted Microscope at 10× magnification.
In aggregation studies, peptides were added to PBMCs in RPMI media containing 10% FBS and incubated overnight at 37 °C in 5% CO2.
The peptides were also evaluated for their tendency to aggregate when added to RPMI tissue culture media containing 10% fetal bovine serum in the presence of PBMCs. Peptides were added to PBMCs in RPMI media containing 10% FBS and incubated overnight at 37 °C in 5% CO2. […] Compared to a highly aggregation prone peptide, 1018 [Haney, E. F., et al. (2017). Aggregation and its influence on the immunomodulatory activity of synthetic innate defense regulator peptides.
As with the DJK-5 derivatives above, the AB103-D derivatives were evaluated for their tendency to aggregate when added to RPMI tissue culture media containing 10% fetal bovine serum in the presence of PBMCs. Peptides were added to PBMCs in RPMI media containing 10% FBS and incubated overnight at 37 °C in 5% CO2.

PAO1 preformed biofilms = conditions: read-out: Biofilm Eradication IC50; PAO1, 24-hr preformed biofilms treated overnight, TTC
[7] = test system: human bronchiolar epithelial cells (HBEs); assay: Cytotoxicity (LDH release), human bronchiolar epithelial cells
MRSA preformed biofilms = assay: Biofilm eradication of 24-hr preformed biofilms (TTC metabolic dye), MRSA; format: cell-based, methicillin resistant Staphylococcus aureus; conditions: 24-hr preformed biofilms treated overnight
MRSA USA300 biofilms = assay: Biofilm inhibition by >95% pure peptides (crystal violet), MRSA; format: cell-based, methicillin resistant Staphylococcus aureus; conditions: for minimum inhibitory concentration of peptide that inhibited at least 90% of biofilm growth (MBIC90): MRSA USA300 biofilms, >95% pure peptides, 10% TSB + 0.1% glucose
N/TERT keratinocytes = assay: Cytotoxicity (LDH release), N/TERT keratinocytes
[8] = test system: P. aeruginosa PAO1 planktonic cells; assay: Planktonic growth inhibition by pure AB103-D derivatives, P. aeruginosa; format: cell-based, Pseudomonas aeruginosa
Protocol: (§3) The effect of peptide on bacterial and biofilm growth was assessed using the biofilm inhibition assay [Haney, E. F., Trimble, M. J., & Hancock, R. E. W. (2021) FIGS. 20A-20D. Microtiter plate assays to assess antibiofilm activity against bacteria. Nature Protocols, 16(5), 2615-2632]. The effect of peptide on planktonic growth and biofilm growth of MRSA USA300 (FIG. 20A, FIG. 20C) and P. aeruginosa PAO1 (FIGS. 20B, 20D) was assessed and compared to the activity seen for AB103-D (gray stars) and DJK5 (gray open circles). Data shown are the average of three biological replicates. Error bars have been omitted for clarity. […]. The results indicated enhanced antibiofilm and antibacterial activity of AB103-D derivatives compared to DJK5.

red blood cells = assay: Hemolysis; format: cell-based, human; conditions: 4 hours
Protocol: Hemolysis: Peptide induced hemolysis was evaluated according to methods described previously [Hilchie, A. L., et al. (2016). Mastoparan is a membranolytic anti-cancer peptide that works synergistically with gemcitabine in a mouse model of mammary carcinoma. Biochimica Et Biophysica Acta, 1858(12), 3195-3204]. Briefly, red blood cells were obtained, with human ethics approval, from the blood of healthy volunteers collected in a sodium heparin tube and then rinsed three times in PBS, centrifuging between washes, to obtain the hematocrit (100% RBC). A 2.5% RBCs suspension was exposed to peptide at varying concentrations and incubated at 37 C in a 5% CO2 humidified atmosphere for 4 hours. Supernatants were collected following centrifugation (1100 rpm) and transferred to a flat bottom microtitre plate. The absorbance (490 nm) of each supernatant was measured on a BioTek Epoch Microplate Spectrophotometer. Percent hemolysis was calculated by comparing the absorbance arising from peptide treated cells to RBCs treated with […] (0% hemolysis) or lysed with 1% Triton X-100 (100% hemolysis).

[9] = test system: P. aeruginosa PAO1 biofilms; assay: Biofilm inhibition by SPOT-synthesized AB103-D variants (crystal violet), P. aeruginosa; format: cell-based, Pseudomonas aeruginosa; conditions: P. aeruginosa PAO1, SPOT peptides
[10] = test system: MRSA USA300 planktonic cells; assay: Planktonic growth inhibition by pure AB103-D derivatives, MRSA; format: cell-based, methicillin resistant Staphylococcus aureus
Protocol: as §3

[11] = 200 μg/ml or highest concentration

With `CC[C@@H](C)[C@@H](NC(=O)[C@@H](CCCNC(=N)N)NC(=O)[C@@H](CCCCN)NC(=O)[C@@H](CCCNC(=N)N)NC(=O)[C@H](NC(=O)[C@H](NC(=O)[C@@H](CCCNC(=N)N)NC(=O)[C@H](NC(=O)[C@H](N)CCCNC(=N)N)C(C)C)C(C)C)[C@H](C)CC)C(=O)N[C@H](CCCNC(=N)N)C(=O)N[C@H](Cc1c[nH]c2ccccc12)C(=O)N[C@@H](C(N)=O)C(C)C` [AB102-D, rvrvirkrirwv-NH2] (H-[dR][dV][dR][dV][dI][dR][dK][dR][dI][dR][dW][dV]-NH2) the “Antibiofilm activity on skin organoid” value [1] was “excellent antibiofilm activity”, the “Antibiofilm activity on skin organoid” value [2] was “excellent antibiofilm activity” and the IC50 ([3]; read-out: Biofilm Inhibition IC50, PAO1, 24 hours, crystal violet) was 16.5 µM. For the same compound, the “Bacteria in nasal cavity and lungs” value (P. aeruginosa LESB58) was “reduced the amount of bacteria in the nasal cavity and lungs of mice much more than DJK5 treatment”, the “Cytotoxicity (LDH)” value [4] was “low toxicity” and the “Bacteria in nasal cavity and lungs” value (MRSA USA300) was “reduced the amount of bacteria in the nasal cavity and lungs of mice much more than DJK5 treatment”. For the same compound, the “Proportion of dead biofilm cells” value [5] was “killed more of the biofilm cells”, the Peptide aggregation ([6]; 50 μg/ml) was “No appreciable aggregation” and the IC50 (PAO1 preformed biofilms) was 23 µM. For the same compound, the “Cytotoxicity (LDH)” value [7] was “low toxicity”, the IC50 (MRSA preformed biofilms) was 3.7 µM and the IC50 (MRSA USA300 biofilms; MRSA, 24 hours) was 150 nM. For the same compound, the “Cytotoxicity (LDH)” value (N/TERT keratinocytes) was “low toxicity”.

In the case of `CC[C@@H](C)[C@@H](NC(=O)[C@@H](C)NC(=O)[C@@H](CCCNC(=N)N)NC(=O)[C@@H](Cc1c[nH]c2ccccc12)NC(=O)[C@@H](CCC(N)=O)NC(=O)[C@H](NC(=O)[C@@H](CCCNC(=N)N)NC(=O)[C@H](NC(=O)[C@H](NC(=O)[C@@H](Cc1c[nH]c2ccccc12)NC(=O)[C@H](NC(=O)[C@H](N)CCCNC(=N)N)C(C)C)C(C)C)[C@H](C)CC)C(C)C)C(N)=O` [AB109-D, rvwvirvqwrai] (H-[dR][dV][dW][dV][dI][dR][dV][dQ][dW][dR][dA][dI]-NH2), the Biofilm growth inhibition [3] is reported as “among the most active”, the “minimum inhibitory concentration of peptide that inhibited at least 90% of biofilm growth (MBIC90)” value ([3]; crystal violet) is reported as 2 µM and the “More active than AB103-D against PAO1 biofilms” value (shortened to “More active than AB103-D”) [3] is reported as “up to 4 fold”. The “Cytotoxicity (LDH)” value [4] was “most toxic towards PBMCs at the highest peptide concentration evaluated of 200 μg/ml”, the Planktonic growth inhibition [8] was “among the most active” and the Peptide aggregation ([6]; 50 μg/ml) was “peptide aggregation was again observed”. For the same compound, the Peptide aggregation [6, 11] was “strongly aggregated”, the Hemolysis (red blood cells) was “substantial hemolysis at concentrations higher than 25 μg/ml” and the “minimum inhibitory concentration of peptide that inhibited at least 90% of biofilm growth (MBIC90)” value (MRSA USA300 biofilms) was 1 µM. The “Activity against PAO1 biofilms compared to AB103-D” value (from here on “Activity … compared to AB103-D”) [9] was “activity superior to that of AB103-D”.

With `CC[C@@H](C)[C@@H](NC(=O)[C@H](NC(=O)[C@@H](CCCNC(=N)N)NC(=O)[C@@H](Cc1c[nH]c2ccccc12)NC(=O)[C@@H](CCC(N)=O)NC(=O)[C@H](NC(=O)[C@@H](CCCNC(=N)N)NC(=O)[C@H](NC(=O)[C@H](NC(=O)[C@@H](CCCNC(=N)N)NC(=O)[C@H](NC(=O)[C@H](N)CCCNC(=N)N)C(C)C)C(C)C)[C@H](C)CC)C(C)C)[C@H](C)CC)C(N)=O` [AB112-D, rvrvirvqwrii] (H-[dR][dV][dR][dV][dI][dR][dV][dQ][dW][dR][dI][dI]-NH2) the Biofilm growth inhibition [3] was “among the most active”, the “minimum inhibitory concentration of peptide that inhibited at least 90% of biofilm growth (MBIC90)” value ([3]; crystal violet) was 2 µM and the “More active than AB103-D” value [3] was “up to 4 fold”. For the same compound, the Planktonic growth inhibition [8] was “among the most active”, the Peptide aggregation ([6]; 50 μg/ml) was “peptide aggregation was again observed” and the Peptide aggregation [6, 11] was “strongly aggregated”. For the same compound, the “minimum inhibitory concentration of peptide that inhibited at least 90% of biofilm growth (MBIC90)” value (MRSA USA300 biofilms) was 1 µM and the “Activity … compared to AB103-D” value [9] was “activity superior to that of AB103-D”.

In the case of `CC[C@@H](C)[C@@H](NC(=O)[C@@H](CCCNC(=N)N)NC(=O)[C@@H](CCCNC(=N)N)NC(=O)[C@@H](Cc1c[nH]c2ccccc12)NC(=O)[C@@H](CCC(N)=O)NC(=O)[C@H](NC(=O)[C@@H](CCCNC(=N)N)NC(=O)[C@H](NC(=O)[C@H](NC(=O)[C@@H](CCCNC(=N)N)NC(=O)[C@H](NC(=O)[C@H](N)CCCNC(=N)N)C(C)C)C(C)C)[C@H](C)CC)C(C)C)C(N)=O` [AB113-D, rvrvirvqwrri] (H-[dR][dV][dR][dV][dI][dR][dV][dQ][dW][dR][dR][dI]-NH2), the Planktonic growth inhibition [10] is reported as “among the most active against planktonic cells”, the Biofilm growth inhibition [3] is reported as “among the most active” and the “minimum inhibitory concentration of peptide that inhibited at least 90% of biofilm growth (MBIC90)” value ([3]; crystal violet) is reported as 2 µM. The “More active than AB103-D” value [3] was “up to 4 fold”, the Planktonic growth inhibition [8] was “among the most active” and the “minimum inhibitory concentration of peptide that inhibited at least 90% of biofilm growth (MBIC90)” value (MRSA USA300 biofilms) was 0.5 µM. The “Activity … compared to AB103-D” value [9] was “activity superior to that of AB103-D”.

Source: US20260374818A1, “CATIONIC PEPTIDES WITH BROAD SPECTRUM ACTIVITY” (priority 2023, published 2026)
